Experimental data published in patent US10537545B2, “Ceramide derivatives as anticancer agents” (Rutgers, The State University of New Jersey, priority 2015, dated 2020).

Tests used:
HDAC6 = target: T1, HDAC6 (Homo sapiens, UniProt Q9UBN7); test: HDAC inhibitor assay, HDAC6; assay type: biochemical; conditions: class II B HDAC6; read-out: IC50, inhibition of HDAC6
T1 sequence (Q9UBN7 1-1215): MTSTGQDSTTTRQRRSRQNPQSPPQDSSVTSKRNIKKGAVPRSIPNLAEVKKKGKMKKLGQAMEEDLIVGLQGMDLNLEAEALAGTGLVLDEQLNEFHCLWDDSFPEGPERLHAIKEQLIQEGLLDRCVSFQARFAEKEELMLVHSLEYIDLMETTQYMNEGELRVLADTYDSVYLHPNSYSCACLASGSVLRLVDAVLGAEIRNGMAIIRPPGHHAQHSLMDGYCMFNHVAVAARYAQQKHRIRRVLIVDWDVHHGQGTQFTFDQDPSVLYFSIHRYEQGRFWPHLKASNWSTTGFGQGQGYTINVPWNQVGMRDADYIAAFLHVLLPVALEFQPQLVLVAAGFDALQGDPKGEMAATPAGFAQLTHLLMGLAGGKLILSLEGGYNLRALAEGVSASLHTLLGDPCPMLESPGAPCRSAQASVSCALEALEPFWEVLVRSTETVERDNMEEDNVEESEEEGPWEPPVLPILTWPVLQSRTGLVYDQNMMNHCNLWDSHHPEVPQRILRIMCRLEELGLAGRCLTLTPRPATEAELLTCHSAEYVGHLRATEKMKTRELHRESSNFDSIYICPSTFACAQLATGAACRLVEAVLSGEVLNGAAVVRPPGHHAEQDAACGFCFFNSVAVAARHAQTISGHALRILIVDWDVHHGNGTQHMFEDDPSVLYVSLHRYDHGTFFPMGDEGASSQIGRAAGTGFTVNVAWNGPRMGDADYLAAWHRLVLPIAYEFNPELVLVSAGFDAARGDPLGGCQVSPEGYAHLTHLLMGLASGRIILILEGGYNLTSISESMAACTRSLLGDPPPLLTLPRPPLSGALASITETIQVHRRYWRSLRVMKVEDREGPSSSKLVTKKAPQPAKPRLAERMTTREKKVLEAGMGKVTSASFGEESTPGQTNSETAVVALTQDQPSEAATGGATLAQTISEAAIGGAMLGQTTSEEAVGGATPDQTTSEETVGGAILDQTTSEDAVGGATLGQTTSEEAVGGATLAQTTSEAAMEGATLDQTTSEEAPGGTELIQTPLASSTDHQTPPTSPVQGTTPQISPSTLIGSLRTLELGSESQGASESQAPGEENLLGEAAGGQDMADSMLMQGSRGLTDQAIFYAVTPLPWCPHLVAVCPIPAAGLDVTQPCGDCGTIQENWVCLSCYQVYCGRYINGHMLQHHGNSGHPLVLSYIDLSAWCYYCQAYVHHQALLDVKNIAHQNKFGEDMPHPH
Description: (§1) Compound VIII was subjected to enzymatic inhibition test against the class I (HDAC1, HDAC2, HDAC3 and HDAC8), the class II A (HDAC4, HDAC5, HDAC7 and HDAC9) and the class II B (HDAC6) enzymes. HDAC inhibitors Trichostatin A (TSA) and TMP269 (TMP) were used as reference compounds.

HDAC1 = HDAC1 (Homo sapiens, UniProt Q13547); test: HDAC inhibitor assay, HDAC1; assay type: biochemical; conditions: up to 50 or 100 μM
Description: as §1

HDAC2 = HDAC2 (Homo sapiens, UniProt Q92769); test: HDAC inhibitor assay, HDAC2; assay type: biochemical; conditions: up to 50 or 100 μM
Description: as §1

HDAC3 = HDAC3 (Homo sapiens, UniProt O15379); test: HDAC inhibitor assay, HDAC3; assay type: biochemical; conditions: up to 50 or 100 μM
Description: as §1

HDAC8 = target: T2, HDAC8 (Homo sapiens, UniProt Q9BY41); test: HDAC inhibitor assay, HDAC8; assay type: biochemical; conditions: up to 50 or 100 μM
T2 sequence (Q9BY41 1-377): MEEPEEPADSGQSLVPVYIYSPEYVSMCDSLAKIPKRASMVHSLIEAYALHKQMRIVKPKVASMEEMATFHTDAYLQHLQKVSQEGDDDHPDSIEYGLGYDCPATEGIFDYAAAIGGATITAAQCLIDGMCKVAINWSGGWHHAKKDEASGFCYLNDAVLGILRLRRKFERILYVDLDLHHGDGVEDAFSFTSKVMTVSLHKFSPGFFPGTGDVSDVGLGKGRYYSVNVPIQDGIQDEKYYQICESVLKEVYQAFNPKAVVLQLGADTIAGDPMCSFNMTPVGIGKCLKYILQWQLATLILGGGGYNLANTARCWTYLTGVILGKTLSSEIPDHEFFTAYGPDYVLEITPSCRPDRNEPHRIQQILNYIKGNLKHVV
Description: as §1

HDAC4 = HDAC4 (Homo sapiens, UniProt P56524); test: HDAC inhibitor assay, HDAC4; assay type: biochemical; conditions: up to 50 or 100 μM
Description: as §1

HDAC5 = HDAC5 (Homo sapiens, UniProt Q9UQL6); test: HDAC inhibitor assay, HDAC5; assay type: biochemical; conditions: up to 50 or 100 μM
Description: as §1

HDAC7 = target: T3, HDAC7 (Homo sapiens, UniProt Q8WUI4); test: HDAC inhibitor assay, HDAC7; assay type: biochemical; conditions: up to 50 or 100 μM
T3 sequence (Q8WUI4 1-952): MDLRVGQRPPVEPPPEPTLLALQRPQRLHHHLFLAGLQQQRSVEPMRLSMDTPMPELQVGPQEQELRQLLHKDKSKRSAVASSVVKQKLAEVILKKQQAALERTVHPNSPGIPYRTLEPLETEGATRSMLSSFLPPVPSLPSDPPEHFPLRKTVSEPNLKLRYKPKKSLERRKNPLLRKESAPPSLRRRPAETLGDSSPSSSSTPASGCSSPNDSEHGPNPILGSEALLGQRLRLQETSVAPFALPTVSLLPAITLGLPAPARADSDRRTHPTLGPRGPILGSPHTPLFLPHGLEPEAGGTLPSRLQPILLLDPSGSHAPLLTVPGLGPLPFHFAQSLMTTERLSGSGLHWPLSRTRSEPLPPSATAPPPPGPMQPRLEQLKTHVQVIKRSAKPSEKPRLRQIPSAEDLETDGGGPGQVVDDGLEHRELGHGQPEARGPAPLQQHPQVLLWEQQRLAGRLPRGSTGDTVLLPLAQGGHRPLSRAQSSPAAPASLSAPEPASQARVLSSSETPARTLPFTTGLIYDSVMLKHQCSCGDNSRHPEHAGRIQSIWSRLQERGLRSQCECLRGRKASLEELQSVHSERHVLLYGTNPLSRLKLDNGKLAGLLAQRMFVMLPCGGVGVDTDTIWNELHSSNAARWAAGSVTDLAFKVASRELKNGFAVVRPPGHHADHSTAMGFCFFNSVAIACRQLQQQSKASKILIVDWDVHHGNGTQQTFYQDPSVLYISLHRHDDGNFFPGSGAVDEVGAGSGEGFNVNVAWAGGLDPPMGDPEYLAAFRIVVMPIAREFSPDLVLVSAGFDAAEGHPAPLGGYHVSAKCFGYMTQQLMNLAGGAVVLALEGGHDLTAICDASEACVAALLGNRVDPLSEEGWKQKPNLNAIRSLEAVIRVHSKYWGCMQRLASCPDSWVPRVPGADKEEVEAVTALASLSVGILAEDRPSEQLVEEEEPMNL
Description: as §1

HDAC9 = HDAC9 (Homo sapiens, UniProt Q9UKV0); test: HDAC inhibitor assay, HDAC9; assay type: biochemical; conditions: up to 50 or 100 μM
Description: as §1

HELA [1] = conditions: reported in Andrianasolo et al., J. Nat. Prod. 2011, read-out: IC50, growth inhibition of HeLa (cervical cancer); cited from earlier work
MCF7 [2] = conditions: reported in Andrianasolo et al., J. Nat. Prod. 2011, read-out: IC50, growth inhibition of MCF7 (breast cancer); cited from earlier work
HELA [3] = test: Cytotoxicity assay, HELA cancer cell line; assay type: cell-based; conditions: for CTRL HELA (growth relative to control): control = 1; for Growth HELA: control growth 0.55
Procedure: (§2) Cytotoxicity Assay. […] Cells were treated with varying concentrations of compounds. The IC50 were measured. […] In order to verify that assumption an LDH (Lactate Dehydrogenase) assay was performed.

MCF7 [4] = test: Cytotoxicity assay, MCF7 cancer cell line; assay type: cell-based, human; conditions: for CTRL MCF7 (growth relative to control): control = 1; for Growth MCF7: control growth 0.7
Procedure: as §2

Sequence of HDAC9 (Q9UKV0 whole entry, species assumed): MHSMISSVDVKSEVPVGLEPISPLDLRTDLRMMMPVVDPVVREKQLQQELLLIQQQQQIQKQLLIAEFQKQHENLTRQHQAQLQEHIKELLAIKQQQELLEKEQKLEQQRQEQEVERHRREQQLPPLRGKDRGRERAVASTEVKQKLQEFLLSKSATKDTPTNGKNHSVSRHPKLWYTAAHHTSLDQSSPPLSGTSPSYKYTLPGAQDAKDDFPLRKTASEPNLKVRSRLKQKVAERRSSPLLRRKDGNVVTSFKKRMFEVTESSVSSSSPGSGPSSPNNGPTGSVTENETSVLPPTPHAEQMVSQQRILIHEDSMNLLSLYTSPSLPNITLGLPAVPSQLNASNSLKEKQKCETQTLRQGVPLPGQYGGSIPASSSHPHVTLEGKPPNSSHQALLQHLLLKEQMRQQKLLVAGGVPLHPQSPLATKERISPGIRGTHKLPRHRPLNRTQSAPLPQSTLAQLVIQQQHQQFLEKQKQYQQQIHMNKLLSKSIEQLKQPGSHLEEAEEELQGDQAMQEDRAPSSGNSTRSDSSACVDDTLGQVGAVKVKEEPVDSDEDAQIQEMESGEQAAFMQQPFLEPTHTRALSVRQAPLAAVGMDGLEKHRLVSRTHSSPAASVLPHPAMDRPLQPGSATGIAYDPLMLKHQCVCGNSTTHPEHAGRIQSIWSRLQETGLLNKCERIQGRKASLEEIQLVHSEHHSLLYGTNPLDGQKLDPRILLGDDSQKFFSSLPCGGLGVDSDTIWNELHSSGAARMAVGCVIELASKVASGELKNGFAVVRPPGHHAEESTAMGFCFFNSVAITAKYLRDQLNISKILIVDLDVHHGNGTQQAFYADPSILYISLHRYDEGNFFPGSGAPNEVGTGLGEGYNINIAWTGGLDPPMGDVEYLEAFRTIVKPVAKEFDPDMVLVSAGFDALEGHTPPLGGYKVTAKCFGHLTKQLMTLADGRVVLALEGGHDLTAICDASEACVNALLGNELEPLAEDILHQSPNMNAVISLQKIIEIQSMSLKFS
Sequence of HDAC5 (Q9UQL6 whole entry, species assumed): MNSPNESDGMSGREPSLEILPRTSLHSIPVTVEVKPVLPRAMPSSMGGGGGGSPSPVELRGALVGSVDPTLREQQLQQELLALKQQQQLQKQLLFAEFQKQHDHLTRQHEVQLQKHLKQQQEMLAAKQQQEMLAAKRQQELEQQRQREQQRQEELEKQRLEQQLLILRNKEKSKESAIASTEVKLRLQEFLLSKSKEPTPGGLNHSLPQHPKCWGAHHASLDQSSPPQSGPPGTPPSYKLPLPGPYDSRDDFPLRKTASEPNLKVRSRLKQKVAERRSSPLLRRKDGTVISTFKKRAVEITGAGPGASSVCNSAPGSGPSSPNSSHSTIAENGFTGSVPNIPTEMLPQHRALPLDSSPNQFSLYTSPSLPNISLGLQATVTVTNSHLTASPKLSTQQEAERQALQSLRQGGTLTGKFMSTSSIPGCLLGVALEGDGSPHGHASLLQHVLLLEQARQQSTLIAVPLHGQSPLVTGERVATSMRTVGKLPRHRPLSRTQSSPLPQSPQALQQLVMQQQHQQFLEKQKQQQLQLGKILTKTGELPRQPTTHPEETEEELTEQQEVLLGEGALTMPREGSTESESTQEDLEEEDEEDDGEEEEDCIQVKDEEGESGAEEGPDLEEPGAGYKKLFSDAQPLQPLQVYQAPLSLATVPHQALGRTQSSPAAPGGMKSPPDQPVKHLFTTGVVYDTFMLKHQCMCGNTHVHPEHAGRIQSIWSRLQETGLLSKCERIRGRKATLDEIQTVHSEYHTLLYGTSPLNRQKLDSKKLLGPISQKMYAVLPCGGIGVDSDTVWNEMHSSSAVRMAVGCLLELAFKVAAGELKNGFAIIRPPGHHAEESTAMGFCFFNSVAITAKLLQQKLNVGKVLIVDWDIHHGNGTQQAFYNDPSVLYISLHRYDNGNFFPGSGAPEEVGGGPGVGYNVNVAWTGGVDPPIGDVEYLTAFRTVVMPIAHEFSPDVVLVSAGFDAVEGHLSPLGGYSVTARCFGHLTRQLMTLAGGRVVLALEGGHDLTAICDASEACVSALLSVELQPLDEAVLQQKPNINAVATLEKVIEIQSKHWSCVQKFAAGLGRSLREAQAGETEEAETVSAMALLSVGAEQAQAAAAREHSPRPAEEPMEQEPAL
Sequence of HDAC1 (Q13547 whole entry, species assumed): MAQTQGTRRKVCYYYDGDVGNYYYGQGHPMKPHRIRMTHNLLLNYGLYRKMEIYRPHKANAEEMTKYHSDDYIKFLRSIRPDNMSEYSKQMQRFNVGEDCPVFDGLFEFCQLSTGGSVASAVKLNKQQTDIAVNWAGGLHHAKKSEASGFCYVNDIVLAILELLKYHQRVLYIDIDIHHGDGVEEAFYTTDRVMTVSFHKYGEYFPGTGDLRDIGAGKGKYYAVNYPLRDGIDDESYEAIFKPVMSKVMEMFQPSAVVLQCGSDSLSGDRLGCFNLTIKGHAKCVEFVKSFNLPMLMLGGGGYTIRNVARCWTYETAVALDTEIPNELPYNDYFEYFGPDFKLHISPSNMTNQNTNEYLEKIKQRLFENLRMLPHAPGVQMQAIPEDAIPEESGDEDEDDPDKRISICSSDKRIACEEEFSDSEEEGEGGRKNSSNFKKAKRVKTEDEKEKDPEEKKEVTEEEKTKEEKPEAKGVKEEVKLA
Sequence of HDAC4 (P56524 whole entry, species assumed): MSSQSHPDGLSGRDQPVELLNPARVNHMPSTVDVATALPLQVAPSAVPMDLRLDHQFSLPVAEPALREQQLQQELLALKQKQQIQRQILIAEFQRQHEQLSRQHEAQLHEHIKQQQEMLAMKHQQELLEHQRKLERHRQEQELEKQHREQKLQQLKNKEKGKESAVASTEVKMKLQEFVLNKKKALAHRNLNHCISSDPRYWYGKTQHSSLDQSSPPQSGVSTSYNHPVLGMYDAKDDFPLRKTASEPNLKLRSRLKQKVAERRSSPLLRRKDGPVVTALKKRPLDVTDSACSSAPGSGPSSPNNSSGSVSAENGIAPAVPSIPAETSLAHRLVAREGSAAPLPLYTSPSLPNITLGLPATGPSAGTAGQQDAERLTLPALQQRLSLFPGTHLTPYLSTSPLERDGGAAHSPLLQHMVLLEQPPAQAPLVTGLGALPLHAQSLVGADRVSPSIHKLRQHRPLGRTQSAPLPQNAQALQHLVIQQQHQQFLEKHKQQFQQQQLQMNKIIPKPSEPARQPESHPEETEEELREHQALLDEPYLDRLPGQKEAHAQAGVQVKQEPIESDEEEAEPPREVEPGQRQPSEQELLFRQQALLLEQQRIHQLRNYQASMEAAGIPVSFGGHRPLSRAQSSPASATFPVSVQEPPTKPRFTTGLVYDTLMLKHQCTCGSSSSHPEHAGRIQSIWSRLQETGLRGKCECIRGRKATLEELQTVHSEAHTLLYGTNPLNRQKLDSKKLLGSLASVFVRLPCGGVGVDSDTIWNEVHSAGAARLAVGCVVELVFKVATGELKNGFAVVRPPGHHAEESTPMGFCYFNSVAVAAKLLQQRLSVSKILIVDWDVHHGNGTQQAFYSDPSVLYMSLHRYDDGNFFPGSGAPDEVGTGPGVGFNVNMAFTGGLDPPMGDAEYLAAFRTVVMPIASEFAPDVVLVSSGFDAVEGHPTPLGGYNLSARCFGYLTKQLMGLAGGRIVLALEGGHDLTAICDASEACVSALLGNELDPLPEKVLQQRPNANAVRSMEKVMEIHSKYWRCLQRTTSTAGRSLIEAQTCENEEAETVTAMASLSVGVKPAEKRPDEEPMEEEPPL
Sequence of HDAC2 (Q92769 whole entry, species assumed): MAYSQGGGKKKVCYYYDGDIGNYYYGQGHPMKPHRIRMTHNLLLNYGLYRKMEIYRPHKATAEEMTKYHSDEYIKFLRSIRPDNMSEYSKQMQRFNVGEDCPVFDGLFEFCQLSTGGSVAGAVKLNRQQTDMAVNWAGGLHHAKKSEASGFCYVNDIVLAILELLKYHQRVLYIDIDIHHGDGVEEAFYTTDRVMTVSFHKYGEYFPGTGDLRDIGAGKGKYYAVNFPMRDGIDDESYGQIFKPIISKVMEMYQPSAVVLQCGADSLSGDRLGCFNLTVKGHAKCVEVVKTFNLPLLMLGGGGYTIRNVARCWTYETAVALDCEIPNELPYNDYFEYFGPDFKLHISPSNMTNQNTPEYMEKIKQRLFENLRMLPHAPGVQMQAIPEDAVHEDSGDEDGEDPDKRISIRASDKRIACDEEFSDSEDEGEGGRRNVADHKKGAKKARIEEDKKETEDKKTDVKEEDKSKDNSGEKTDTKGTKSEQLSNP
Sequence of HDAC3 (O15379 whole entry, species assumed): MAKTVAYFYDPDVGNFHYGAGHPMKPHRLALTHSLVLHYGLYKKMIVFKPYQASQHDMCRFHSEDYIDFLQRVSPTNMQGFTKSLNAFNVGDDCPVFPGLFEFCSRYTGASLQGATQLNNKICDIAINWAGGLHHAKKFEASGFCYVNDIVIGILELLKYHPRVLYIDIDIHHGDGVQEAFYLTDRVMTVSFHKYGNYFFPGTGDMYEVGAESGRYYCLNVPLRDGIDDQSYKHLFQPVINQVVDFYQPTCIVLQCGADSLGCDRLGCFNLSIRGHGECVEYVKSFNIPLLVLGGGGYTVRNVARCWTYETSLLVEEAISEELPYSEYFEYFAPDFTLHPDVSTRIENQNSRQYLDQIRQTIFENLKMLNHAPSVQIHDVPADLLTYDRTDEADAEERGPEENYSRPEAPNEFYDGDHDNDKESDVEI
Sequence of HDAC3 (Q9Y618 395-489 partner limits assumed, species assumed): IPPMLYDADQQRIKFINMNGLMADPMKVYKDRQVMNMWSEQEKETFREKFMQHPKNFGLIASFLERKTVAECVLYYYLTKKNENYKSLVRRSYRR

SMILES	IC50 (HDAC6) [nM]	Inhibition of HDAC1 (HDAC1)	Inhibition of HDAC2 (HDAC2)	Inhibition of HDAC3 (HDAC3)	Inhibition of HDAC8 (HDAC8)	Inhibition of HDAC4 (HDAC4)	Inhibition of HDAC5 (HDAC5)	Inhibition of HDAC7 (HDAC7)	Inhibition of HDAC9 (HDAC9)	IC50 (HELA [1]) [nM]	IC50 (MCF7 [2]) [nM]	CTRL HELA (growth relative to control) (HELA [3]; 72 μg*0.01/ml)	Growth HELA (HELA [3]; 72 μg*0.01/ml)	CTRL HELA (growth relative to control) (HELA [3]; 360 μg*0.01/ml)	Growth HELA (HELA [3]; 360 μg*0.01/ml)	CTRL MCF7 (growth relative to control) (MCF7 [4]; 72 μg*0.01/ml)	Growth MCF7 (MCF7 [4]; 72 μg*0.01/ml)	CTRL MCF7 (growth relative to control) (MCF7 [4]; 360 μg*0.01/ml)	Growth MCF7 (MCF7 [4]; 360 μg*0.01/ml)
C=C1CC[C@@H]2O[C@@]2(C)CC[C@H](/C(=C/CC2OC2(C)C)CO)[C@H]1C(=O)OC (stereo partly drawn) [compound VIII]	~80000	did not significantly inhibit	did not significantly inhibit	did not significantly inhibit	did not significantly inhibit	did not significantly inhibit	did not significantly inhibit	did not significantly inhibit	did not significantly inhibit										
CCC/C=C\C/C=C\CCC(=O)O[C@@H](COC(=O)CCCCCCCCCCCCC)[C@H](O)[C@H](CO)NC(=O)CCCCCCCCCCC [compound 2]										500	200								
CCC/C=C\C/C=C\C/C=C\CCCCC(=O)O[C@@H](COC(=O)CCCCCCCCCCCCCCC)[C@H](O)[C@H](CO)NC(=O)CCCCCCCCCCC (relative stereo) [compound 1]										400	100	0.78	0.43	0.56	0.31	0.42	0.29	0.15	0.11
